Experimental data published in patent publication US20220153732A1, “PROTEIN SECRETION INHIBITORS” (KEZAR LIFE SCIENCES, priority 2019, published 2022).

Columns and labels:
Format in all cases: cell-based
[1] = test system: PD1-ss+10aa/Gaussia Luciferase; assay: Dox-Induced PD1-ss-Gluc Assay; conditions: 24 hr doxycycline induction, 293FRT/TO cells, Gaussia luciferase signal; read-out: 24 hr Dox Inducible PD1ssGluc 293FRT/TO: Mean IC50
Description: (§1) Transfected cells were selected for resistance to the selectable markers Hygromycin and Blasticidin to create a stable cell line that contained the PD1-ss+10aa/Gaussia Luciferase cDNA insert whose expression was regulated under the T-REx™ system. The day before assay, cells were trypsinized and plated in 384-well tissue culture plates. The next day, compound dilutions in DMSO/media containing doxycycline were added to the wells and incubated at 37° C., 5% CO2.
(§2) For chemical structures that include one or more stereoisomers, but are illustrated without indicating stereochemistry, the assay data refers to a mixture of stereoisomers.

[2] = test system: HER3-ss+4aa/Gaussia Luciferase; assay: Dox-Induced Her3-ss-Gluc Assay; conditions: 24 hr doxycycline induction, 293FRT/TO cells, Gaussia luciferase signal; read-out: 24 hr Dox Inducible Her3(ss + 4)Gluc 293FRT/TO: Mean IC50
Description: as §1, with “HER3-ss+4aa/Gaussia” for “PD1-ss+10aa/Gaussia”
as §2

[3] = test system: TNFα-FL/Gaussia Luciferase; assay: Dox Induced TNFα-FL-Gluc Assay; conditions: 24 hr doxycycline induction, 293FRT/TO cells, Gaussia luciferase signal; read-out: 24 hr Dox Inducible TNFaFLGluc 293FRT/TO: Mean IC50
Description: as §1, with “TNFα-FL/Gaussia” for “PD1-ss+10aa/Gaussia”, “T-RExTM” for “T-REx™”, “CO2. […] For chemical structures that include one or more stereoisomers, but are illustrated without indicating stereochemistry, the assay data refers to a mixture of stereoisomers.” for “CO2.”

[4] = test system: human multiple myeloma cell line U266B1; assay: U266 Cell Viability Assay; conditions: U-266, 48 hr, U266B1 cells, Celltiter-Glo, read-out: 48 hr U266 Viability Celltiter-Glo: Mean EC50
Description: Cells were plated in 384-well tissue culture plates and treated with compound dilutions in DMSO/media. Plates were incubated at 37° C., 5% CO2 for 48 hours. After 48 hours, Celltiter-Glo® (Promega) was added to each well and luciferase signal was quantified using Tecan Infinite M1000 Pro for cell viability determination.
as §2

[5] = test system: IL-2-FL/Gaussia Luciferase; assay: Dox Induced IL2-FL-Gluc Assay; conditions: 24 hr doxycycline induction, 293FRT/TO cells, Gaussia luciferase signal; read-out: 24 hr Dox Inducible IL2FLGIuc 293FRT/TO: Mean IC50
Description: as §1, with “IL-2-FL/Gaussia” for “PD1-ss+10aa/Gaussia”, “T-RExTM” for “T-REx™”, “CO2. […] For chemical structures that include one or more stereoisomers, but are illustrated without indicating stereochemistry, the assay data refers to a mixture of stereoisomers.” for “CO2.”

[6] = test system: human multiple myeloma cell line NCI-H929; assay: H929 Cell Viability Assay; conditions: 48 hr, NCI-H929 cells, Celltiter-Glo, read-out: 48 hr H929 Viability Celltiter-Glo: Mean EC50
Description: Plates were incubated at 37° C., 5% CO2 for 48 hours. After 48 hours, Celltiter-Glo® (Promega) was added to each well and luciferase signal was quantified using Tecan Infinite M1000 Pro for cell viability determination.
as §2

| IC50 [1] [nM] | IC50 [2] [nM] | IC50 [3] [nM] | EC50 [4] [nM] | IC50 [5] [nM] | EC50 [6] [nM] | Structure (SMILES) |
| --- | --- | --- | --- | --- | --- | --- |
| 692 | 1940 | > 25000 | > 25000 | 2300 | > 25000 | CCc1csc(NC(=O)c2cccn2Cc2ccncc2)n1 [Compound A35, N-(4-ethylthiazol-2-yl)-1-(pyridin-4-ylmethyl)-1H-pyrrole-2-carboxamide] |
| 698 | 1140 | 21000 | > 25000 | 896 | > 25000 | CC(C)OC(C)(C)c1csc(NC(=O)c2cccn2Cc2cc(F)nc(F)c2)n1 [Compound A36, 1-((2,6-difluoropyridin-4-yl)methyl)-N-(4-(2-isopropoxypropan-2-yl)thiazol-2-yl)-1H-pyrrole-2-carboxamide] |
| 703 | 1240 | 12100 | > 25000 | 1070 | > 25000 | Cc1sc(NC(=O)c2cccn2Cc2ccncc2)nc1C(C)(C)OC(C)C [Compound A37, N-(4-(2-isopropoxypropan-2-yl)-5-methylthiazol-2-yl)-1-(pyridin-4-ylmethyl)-1H-pyrrole-2-carboxamide] |
| 706 | 1200 | 14800 | > 25000 | 1410 | > 25000 | Cc1sc(NC(=O)c2cccn2Cc2ccncc2)nc1C(C)C [Compound A38] |
| 723 | 1490 | 13100 | > 25000 | 1340 | > 25000 | CC(C)(OCC1CCCCO1)c1csc(NC(=O)c2cccn2Cc2ccncc2)n1 (stereo not drawn) [Compound A39, 1-(pyridin-4-ylmethyl)-N-(4-(2-((tetrahydro-2H-pyran-2-yl)methoxy)propan-2-yl)thiazol-2-yl)-1H-pyrrole-2-carboxamide] |
| 858 | 1560 | 12600 | > 25000 | 1210 | > 25000 | CC(C)(OCC1CCOCC1)c1csc(NC(=O)c2cccn2Cc2ccncc2)n1 [Compound A40, 1-(pyridin-4-ylmethyl)-N-(4-(2-((tetrahydro-2H-pyran-4-yl)methoxy)propan-2-yl)thiazol-2-yl)-1H-pyrrole-2-carboxamide] |
| 878 | 2390 | 12000 | > 25000 | 1980 | 9520 | CC(C)OC(C)(C)c1csc(NC(=O)c2cccn2Cc2ccncc2Br)n1 [Compound A41, 1-((3-bromopyridin-4-yl)methyl)-N-(4-(2-isopropoxypropan-2-yl)thiazol-2-yl)-1H-pyrrole-2-carboxamide] |
| 939 | 2180 | > 25000 | > 25000 | 3790 | > 25000 | Cc1nc(NC(=O)c2cccn2Cc2ccncc2)sc1F [Compound A42] |
| 942 | 2210 | > 25000 | > 25000 | 2670 | > 25000 | CCc1sc(NC(=O)c2cccn2Cc2ccncc2)nc1C [Compound A43] |
| 963 | 1480 | 13300 | > 25000 | 837 | > 24800 | CC(C)OC(C)(C)c1csc(NC(=O)c2cccn2CCCCc2ccncc2)n1 [Compound A44, N-(4-(2-isopropoxypropan-2-yl)thiazol-2-yl)-1-(4-(pyridin-4-yl)butyl)-1H-pyrrole-2-carboxamide] |
| 965 | 1640 | 13800 | > 25000 | 869 | > 25000 | CC(C)(C)c1csc(NC(=O)c2cccn2Cc2ccncc2)n1 [Compound A45, N-(4-(tert-butyl)thiazol-2-yl)-1-(pyridin-4-ylmethyl)-1H-pyrrole-2-carboxamide] |
| 1080 | 2980 | 17800 | > 25000 | 890 | > 25000 | Cc1cccc2sc(NC(=O)c3cccn3Cc3ccncc3)nc12 [Compound A46] |
| 1090 | 2210 | 25000 | > 25000 | 3110 | > 25000 | Cc1sc(NC(=O)c2cccn2Cc2ccncc2)nc1C1CC1 [Compound A47] |
| 1190 | 2690 | > 25000 | > 25000 | 2220 | > 25000 | Cc1cc(C(=O)Nc2nc(C(C)(C)OC(C)C)cs2)n(Cc2ccncc2)c1 [Compound A48, N-(4-(2-isopropoxypropan-2-yl)thiazol-2-yl)-4-methyl-1-(pyridin-4-ylmethyl)-1H-pyrrole-2-carboxamide] |
| 1210 | 2580 | 23600 | > 25000 | 1890 | > 25000 | CC(C)OC(C)(C)c1csc(NC(=O)c2cccn2[C@H](C)c2ccncc2)n1 [Compound A49, (R)-N-(4-(2-isopropoxypropan-2-yl)thiazol-2-yl)-1-(1-(pyridin-4-yl)ethyl)-1H-pyrrole-2-carboxamide] |
| 1290 | 2930 | > 25000 | > 25000 | 1450 | > 25000 | O=C(Nc1nc2ccccc2s1)c1cccn1Cc1ccncc1 [Compound A50, N-(benzo[d]thiazol-2-yl)-1-(pyridin-4-ylmethyl)-1H-pyrrole-2-carboxamide] |
| 1300 | 3420 | > 25000 | > 25000 | 2980 | > 25000 | O=C(Nc1nc(C2CC2)cs1)c1cccn1Cc1ccncc1 [Compound A51] |
| 1360 | 2840 | > 25000 | > 25000 | 1950 | > 25000 | O=C(Nc1nc2c(s1)CCCC2)c1cccn1Cc1ccncc1 [Compound A52] |
| 1380 | 1920 | 19100 | > 25000 | 1200 | 17300 | CC(C)OC(C)(C)c1csc(NC(=O)c2cccn2Cc2ccc([N+](=O)[O-])cc2)n1 [Compound A53, N-(4-(2-isopropoxypropan-2-yl)thiazol-2-yl)-1-(4-nitrobenzyl)-1H-pyrrole-2-carboxamide] |
| 1380 | 4050 | > 25000 | > 25000 | 4450 | > 25000 | CC(C)(C)c1cnc(NC(=O)c2cccn2Cc2ccncc2)s1 [Compound A54] |
| 1390 | 3160 | > 25000 | > 25000 | 3990 | > 25000 | CC(C)c1cnc(NC(=O)c2cccn2Cc2ccncc2)s1 [Compound A55] |
| 1420 | 5310 | > 25000 | > 25000 | 6470 | > 25000 | O=C(Nc1nc2c(s1)CCC2)c1cccn1Cc1ccncc1 [Compound A56] |
| 1420 | 4200 | > 25000 | > 25000 | 4930 | > 25000 | CC(C)Cc1cnc(NC(=O)c2cccn2Cc2ccncc2)s1 [Compound A57] |
| 1500 | 3530 | > 25000 | > 25000 | 7060 | > 25000 | Cc1nc(NC(=O)c2cccn2Cc2ccncc2)sc1C [Compound A58, N-(4,5-dimethylthiazol-2-yl)-1-(pyridin-4-ylmethyl)-1H-pyrrole-2-carboxamide] |
